Patent US20260284214A1, “EXATECAN DERIVATIVE AND ANTIBODY-DRUG CONJUGATE THEREOF” (priority 2023, published 2026)
Like-named read-outs stand apart in the source and are kept apart here. Marks after values point to notes of the source that are not given here.

Legend:
hERG potassium channel = hERG potassium channel (Homo sapiens, UniProt Q12809); test: hERG experiment, manual patch clamp; assay type: cell-based; conditions: HEK-293 cells stably expressing hERG; for inhibition at 10 µM: human, read-out: hERG current inhibition rate % (Mean ± SE, n = 2)
Description: Inhibitory effects of the compound of Example 2, the compound of Example 3 and Dxd on an hERG potassium channel were studied by a manual patch clamp technique (a gold standard of hERG safety evaluation), and the risk of ventricular repolarization toxicity caused was evaluated.
The weighed test sample was prepared into a 10 mM stock solution with DMSO, and then the stock solution of the test object was diluted into 3.33 mM intermediate dilution with DMSO. Then, 30 μL of the dilution was added into 10 mL of extracellular fluid to prepare 10 μM working solution, it was ensured that a DMSO content was 0.3%, then 50 μL of F68 was added to the extracellular fluid to enhance a solubility of the test object, and an F68 concentration was 0.5%. Solutions at all concentrations were subjected to ultrasound treatment for 20 minutes. The solubility of the sample was visually observed, and there was no visible precipitation in the 10 μM to-be-tested solution of the test object.
An HEK-293 cell line stably expressing the hERG potassium channel was adopted, and hERG potassium channel cells were purchased from Creacell Company (article number: A-0320). Cell culture method:
The HEK-293 cell line stably expressing the hERG potassium channel was cultured in a DMEM culture medium containing 10% fetal bovine serum and 0.8 mg/mL G418 at a culture temperature of 37° C. under a carbon dioxide concentration of 5%.
Cell passage: the old culture medium was removed, and the cells were washed once with PBS, then 1 mL of TrypLE™ Express solution was added, and the mixture was incubated at 37° C. for about 0.5 minutes. When the cells were separated from a dish bottom, about 5 mL of complete culture medium preheated at 37° C. was added. A cell suspension was gently blown with a straw to separate the aggregated cells. The cell suspension was transferred to a sterile centrifuge tube and centrifuged at 1000 rpm for 5 minutes to collect the cells. […]
An inhibitory effect of the test object on the hERG channel was detected by the manual patch clamp technique.

SD rats = test: Toxicity comparison after repeated administration to SD rats for 7 days (hematology); assay type: in vivo; conditions: 0.1 mg/kg iv for 7 consecutive days, end of study
Description: SD rats were taken as test animals to study toxic reactions after intravenous injection of the compounds of the present disclosure to male and female SD rats at a dosage of 0.1 mg/kg for 7 consecutive days.
• Species: male and female SD rats (5 female rats and 5 male rats/group) • Grade: SPF grade • Weight: ♂ 252.0-287.4 g and ♀ 185.7-224.3 g • Age: 8-12 weeks • Source: Zhejiang Vital River Laboratory Animal Technology Co., Ltd.
Male and female SD rats were injected with the test sample solution, and Compound 2 of the example and the Dxd were given in a dosage of 0.1 mg/kg and a dosage volume of 10 mL/kg.
Preparation of test sample solution: the test sample was dissolved with a solvent (5% DMSO+95% Solutol HS-15 in water).
About 0.2 mL of blood was collected from the jugular sinus of the animals into an anticoagulant tube containing an anticoagulant (EDTA-K2) on D3 after administration, and all to-be-dissected animals were fasted for about 12 hours on the eve of D8 before dissection. Dying animals were euthanized, about 2 mL of blood was collected from abdominal aorta into an anticoagulant tube containing an anticoagulant (EDTA-K2) at the time of dissection, and hematological indexes were detected by a Sysmex XN-1000 hemocytometer. Specific detection indexes were as follows.

BxPC-3 cells = test: Cell inhibitory activity experiment of cytotoxic drug (CellTiter-Glo, 72 hours); assay type: cell-based, human
Description: (§1) Human pancreatic adenocarcinoma cells BxPC-3 (ATCC, article number: CRL-1687) and human pharyngeal squamous cell carcinoma cells FaDu (ATCC, article number: HTB-43) were washed with PBS, then the cells were digested with 0.25% Trypsin-EDTA trypsin for about 3 minutes, and the digestion was terminated with a complete cell culture medium. The cells were centrifuged at 1000 rpm for 5 minutes, the supernatant was discarded, and the cells were resuspended with a complete cell culture medium, counted by a cell counter, and adjusted to a required density. Each well was added with 50 μL of the cell suspension according to 3000 cells per well, and the cell plate was placed into a 5% CO2 cell incubator at 37° C. to incubate the cells for 12-16 hours.
(§2) The cell plate was taken out of the incubator to observe a cell adhesion state, and after cell adhesion, each well was added with 50 μL of the sample (starting from 10 μM, diluted 5 times, 9 concentrations), shaken gently, and then placed into an incubator to incubate the cells for 72 hours. Each well was added with a Cell Titer-GLO™ (Promega, article number: G7572) working solution according to 100 μL/well and shaken gently to lyse the cells, and the plate was read on a microplate reader.
(§3) Data analysis: a graph was made by GraphPad Prism 7.0 software with a Log value of a sample concentration as an abscissa and Cytotoxicity % as an ordinate, and data were subjected to Nonlinear regression (curve fit) analysis to obtain an IC50 value of each compound.

FaDu cells = test: as above; assay type: cell-based, human
Description: as §1, §2, §3

Sequence of hERG potassium channel (Q12809 whole entry): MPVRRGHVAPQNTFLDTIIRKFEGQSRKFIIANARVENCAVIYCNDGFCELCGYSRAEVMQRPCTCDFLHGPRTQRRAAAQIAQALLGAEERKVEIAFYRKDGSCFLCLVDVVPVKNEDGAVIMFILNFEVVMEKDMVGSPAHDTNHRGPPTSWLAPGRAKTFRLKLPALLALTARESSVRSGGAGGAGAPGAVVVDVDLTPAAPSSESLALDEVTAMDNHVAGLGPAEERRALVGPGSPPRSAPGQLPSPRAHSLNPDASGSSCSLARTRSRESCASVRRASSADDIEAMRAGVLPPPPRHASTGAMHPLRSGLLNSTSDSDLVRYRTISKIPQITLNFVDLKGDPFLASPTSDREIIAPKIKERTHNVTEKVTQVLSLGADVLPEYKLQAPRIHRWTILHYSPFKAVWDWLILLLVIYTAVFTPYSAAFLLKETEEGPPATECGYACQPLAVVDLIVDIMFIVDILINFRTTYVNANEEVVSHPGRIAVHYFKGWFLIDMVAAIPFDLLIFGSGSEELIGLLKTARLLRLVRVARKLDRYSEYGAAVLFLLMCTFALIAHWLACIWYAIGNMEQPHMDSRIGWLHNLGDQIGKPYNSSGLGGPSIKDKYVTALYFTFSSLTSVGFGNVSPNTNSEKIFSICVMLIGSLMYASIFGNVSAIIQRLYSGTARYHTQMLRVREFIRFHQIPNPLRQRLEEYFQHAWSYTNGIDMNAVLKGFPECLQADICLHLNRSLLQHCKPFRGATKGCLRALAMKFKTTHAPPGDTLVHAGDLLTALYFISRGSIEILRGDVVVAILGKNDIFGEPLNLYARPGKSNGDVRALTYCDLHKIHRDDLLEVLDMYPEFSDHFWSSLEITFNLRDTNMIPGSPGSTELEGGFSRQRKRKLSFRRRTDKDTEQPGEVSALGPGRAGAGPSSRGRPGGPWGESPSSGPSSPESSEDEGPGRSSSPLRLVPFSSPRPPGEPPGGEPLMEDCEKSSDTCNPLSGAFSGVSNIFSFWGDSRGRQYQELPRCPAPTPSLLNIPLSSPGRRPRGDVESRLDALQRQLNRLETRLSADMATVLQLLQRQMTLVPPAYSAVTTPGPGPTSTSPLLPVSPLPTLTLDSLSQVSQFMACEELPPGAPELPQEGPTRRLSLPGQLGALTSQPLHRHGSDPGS

Compound	inhibition at 10 µM (hERG potassium channel)	#MONO, change compared with the control group (SD rats; ♀ SD rats)	#RETIC, change compared with the control group (SD rats; ♀ SD rats)	HCT, change compared with the control group (SD rats; ♀ SD rats)	HGB, change compared with the control group (SD rats; ♀ SD rats)	RBC, change compared with the control group (SD rats; ♀ SD rats)	#EOS, change compared with the control group (SD rats; ♂ SD rats)	#MONO, change compared with the control group (SD rats; ♂ SD rats)	#NEUT, change compared with the control group (SD rats; ♂ SD rats)	#RETIC, change compared with the control group (SD rats; ♂ SD rats)	further results
CC[C@@]1(O)C(=O)OCc2c1cc1n(c2=O)Cc2c-1nc1cc(F)c(C)c3c1c2[C@@H](NC(=O)CO)CC3 [Dxd]	10.3%	−71.3%**	−96.9%**	−15.8%**	−12.7%**	−13.4%**	−70.2%*	−77.2%**	−66.9%**	−95.5%*	#EOS, change compared with the control group (SD rats; ♀ SD rats): −84.44%**; #LUC, change compared with the control group (SD rats; ♀ SD rats): −66.9%**; #NEUT, change compared with the control group (SD rats; ♀ SD rats): −66.1%*; MCHC, change compared with the control group (SD rats; ♀ SD rats): 3.6%**; WBC, change compared with the control group (SD rats; ♀ SD rats): −47.6%*; #BASO, change compared with the control group (SD rats; ♂ SD rats): −82.1%*; HCT, change compared with the control group (SD rats; ♂ SD rats): −15.7%**; HGB, change compared with the control group (SD rats; ♂ SD rats): −12.8%**; MCHC, change compared with the control group (SD rats; ♂ SD rats): 3.2%**; RBC, change compared with the control group (SD rats; ♂ SD rats): −15.3%**
C#CCN(CCO)C(=O)N[C@H]1CCc2c(C)c(F)cc3nc4c(c1c23)Cn1c-4cc2c(c1=O)COC(=O)[C@]2(O)CC [Example 2]		−54.1%**	−86.4%**	−12.0%**	−10.7%**	−10.9%**	−71.4%**	−68.3%**	−72.2%**	−87.3%**	IC50 (BxPC-3 cells): 0.96 nM; IC50 (FaDu cells): 1.49 nM; hERG current inhibition rate % (Mean ± SE, n = 2) (hERG potassium channel; 10 μM): 2.89% ± 1.86%
C=CCN(CCO)C(=O)N[C@H]1CCc2c(C)c(F)cc3nc4c(c1c23)Cn1c-4cc2c(c1=O)COC(=O)[C@]2(O)CC [Example 3, 1-allyl-3-((1S,9S)-9-ethyl-5-fluoro-9-hydroxy-4-methyl-10,13-dioxo-2,3,9,10,13,15-hexahydro-1H,12H-benzo[de]pyrano[3′,4′:6,7]indolizino[1,2-b]quinolin-1-yl)-1-(2-hydroxyethyl)urea]	15.8%										IC50 (BxPC-3 cells; Homo sapiens): 0.76 nM; IC50 (FaDu cells; Homo sapiens): 1.09 nM
